Measurements taken from patent US9328099B2, “Cyanomethylpyrazole carboxamides as janus kinase inhibitors” (Merck Sharp & Dohme Corp., priority 2011, dated 2016).
pIC50: −log10 of the molar value.

What was measured:
[1] = target: JAK1 (Homo sapiens (Human), UniProt P23458); experiment: Jak Biochemical HTRF Assay, JAK1; settings: HTRF biochemical assay, GST-tagged catalytic domain; top concentration tested […]; read-out: JAK1 IC50
Excerpt: (§1) Jak Biochemical HTRF Assay Protocol
(§2) Subsequent reagent additions employed an Agilent Bravo.

[2] = target: JAK2 (Homo sapiens (Human), UniProt O60674); experiment: Jak Biochemical HTRF Assay, JAK2; settings: HTRF biochemical assay, GST-tagged catalytic domain; top concentration tested […]
Excerpt: as §1, §2

Sequence of JAK1 (P23458 875-1153): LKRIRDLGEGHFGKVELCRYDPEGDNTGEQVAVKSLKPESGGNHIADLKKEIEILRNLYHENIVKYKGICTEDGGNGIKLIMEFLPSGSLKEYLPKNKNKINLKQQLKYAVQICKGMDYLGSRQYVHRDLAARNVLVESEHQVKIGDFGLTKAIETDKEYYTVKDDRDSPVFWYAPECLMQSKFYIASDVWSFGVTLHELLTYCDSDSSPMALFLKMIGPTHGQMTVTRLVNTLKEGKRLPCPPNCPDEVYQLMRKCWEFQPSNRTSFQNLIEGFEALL
Sequence of JAK2 (O60674 849-1124): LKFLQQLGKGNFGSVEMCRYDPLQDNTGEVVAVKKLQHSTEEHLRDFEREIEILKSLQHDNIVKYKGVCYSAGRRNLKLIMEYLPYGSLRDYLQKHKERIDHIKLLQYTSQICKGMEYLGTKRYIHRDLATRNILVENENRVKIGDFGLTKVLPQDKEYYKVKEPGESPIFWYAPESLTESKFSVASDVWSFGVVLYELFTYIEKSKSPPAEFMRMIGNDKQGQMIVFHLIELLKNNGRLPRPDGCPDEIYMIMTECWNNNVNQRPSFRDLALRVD

SMILES | pIC50 [1] | pIC50 [2]
CS(=O)(=O)c1ccc(Nc2nn(C3(CC#N)CN(C(=O)OC4CCOC4)C3)cc2C(N)=O)cc1 (centres unmarked) [Example 30-75, tetrahydrofuran-3-yl 3-(4-carbamoyl-3-{[4-(methylsulfonyl)phenyl]amino)-1H-pyrazol-1-yl)-3-(cyanomethyl)azetidine-1-carboxylate] | 7.66 | 6.66
CS(=O)(=O)c1ccc(Nc2nn(C3(CC#N)CN(C(=O)OC4CCOCC4)C3)cc2C(N)=O)cc1 [Example 30-76, tetrahydro-2H-pyran-4-yl 3-(4-carbamoyl-3-{[4-(methylsulfonyl)phenyl]amino}-1H-pyrazol-1-yl)-3-(cyanomethyl)azetidine-1-carboxylate] | 7.13 | 6.55
C[C@H](OC(=O)N1CCC(CC#N)(n2cc(C(N)=O)c(Nc3ccnc(F)c3)n2)CC1)C1CC1 [Example 30-77, (1S)-1-cyclopropylethyl 4-{4-carbamoyl-3-[(2-fluoropyridin-4-yl)amino]-1H-pyrazol-1-yl}-4-(cyanomethyl)piperidine-1-carboxylate] | 9.70 | 8.05
C[C@@H](OC(=O)N1CCC(CC#N)(n2cc(C(N)=O)c(Nc3ccnc(F)c3)n2)CC1)C1CC1 [Example 30-78, (1R)-1-cyclopropylethyl 4-{4-carbamoyl-3-[(2-fluoropyridin-4-yl)amino]-1H-pyrazol-1-yl}-4-(cyanomethyl)piperidine-1-carboxylate] | 9.52 | 7.92
CC(CO)OC(=O)N1CCC(CC#N)(n2cc(C(N)=O)c(Nc3ccc(F)cc3)n2)CC1 (centres unmarked) [Example 31, 2-Hydroxy-1-methylethyl 4-{4-carbamoyl-3-[(4-fluorophenyl)amino]-1H-pyrazol-1-yl}-4-(cyanomethyl)piperidine-1-carboxylate] | 9.40 | 8.10
CC(=O)N1CC(CC#N)(n2cc(C(N)=O)c(Nc3ccccc3)n2)C1 [Example 32, 1-[1-Acetyl-3-(cyanomethyl)azetidin-3-yl]-3-(phenylamino)-1H-pyrazole-4-carboxamide] | 7.03 | 6.29
CCC(=O)N1CCC(CC#N)(n2cc(C(N)=O)c(Nc3ccccc3)n2)CC1 [Example 33-1, 1-[4-(Cyanomethyl)-1-propanoylpiperidin-4-yl]-3-(phenylamino)-1H-pyrazole-4-carboxamide] | 8.70 | 7.59
C/C=C/C(=O)N1CCC(CC#N)(n2cc(C(N)=O)c(Nc3ccccc3)n2)CC1 [Example 33-2, 1-{1-[(2E)-but-2-enoyl]-4-(cyanomethyl)piperidin-4-yl}-3-(phenylamino)-1H-pyrazole-4-carboxamide] | 8.70 | 7.19
N#CCC1(n2cc(C(N)=O)c(Nc3ccccc3)n2)CCN(C(=O)C2CC2)CC1 [Example 34-1, 1-[4-(Cyanomethyl)-1-(cyclopropylcarbonyl)piperidin-4-yl]-3-(phenylamino)-1H-pyrazole-4-carboxamide] | 9.00 | 7.80
COCC(=O)N1CCC(CC#N)(n2cc(C(N)=O)c(Nc3ccccc3)n2)CC1 [Example 34-2, 1-[4-(cyanomethyl)-1-(methoxyacetyl)piperidin-4-yl]-3-(phenylamino)-1H-pyrazole-4-carboxamide] | 8.30 | 7.03
CC(C)(C)C(=O)N1CCC(CC#N)(n2cc(C(N)=O)c(Nc3ccccc3)n2)CC1 [Example 34-3, 1-[4-(cyanomethyl)-1-(2,2-dimethylpropanoyl)piperidin-4-yl]-3-(phenylamino)-1H-pyrazole-4-carboxamide] | 7.89 | 7.04
CCCCC(=O)N1CCC(CC#N)(n2cc(C(N)=O)c(Nc3ccccc3)n2)CC1 [Example 34-4, 1-[4-(cyanomethyl)-1-pentanoylpiperidin-4-yl]-3-(phenylamino)-1H-pyrazole-4-carboxamide] | 7.92 | 7.15
CN(C)CC(=O)N1CCC(CC#N)(n2cc(C(N)=O)c(Nc3ccccc3)n2)CC1 [Example 34-5, 1-[4-(cyanomethyl)-1-(N,N-dimethylglycyl)piperidin-4-yl]-3-(phenylamino)-1H-pyrazole-4-carboxamide] | 7.89 | 6.50
N#CCC1(n2cc(C(N)=O)c(Nc3ccccc3)n2)CCN(C(=O)C2CCCO2)CC1 (centres unmarked) [Example 34-6, 1-[4-(cyanomethyl)-1-(tetrahydrofuran-2-ylcarbonyl)piperidin-4-yl]-3-(phenylamino)-1H-pyrazole-4-carboxamide] | 8.30 | 6.97
N#CCC1(n2cc(C(N)=O)c(Nc3ccccc3)n2)CCN(C(=O)c2ccccc2)CC1 [Example 34-7, 1-[4-(cyanomethyl)-1-(phenylcarbonyl)piperidin-4-yl]-3-(phenylamino)-1H-pyrazole-4-carboxamide] | 8.22 | 7.03
N#CCC1(n2cc(C(N)=O)c(Nc3ccccc3)n2)CCN(C(=O)c2cccnc2)CC1 [Example 34-8, 1-[4-(cyanomethyl)-1-(pyridin-3-ylcarbonyl)piperidin-4-yl]-3-(phenylamino)-1H-pyrazole-4-carboxamide] | 7.85 | 6.72

SMILES | pIC50 [1] | pIC50 [2]
N#CCC1(n2cc(C(N)=O)c(Nc3ccccc3)n2)CCN(C(=O)c2ccncc2)CC1 [Example 34-10, 1-[4-(cyanomethyl)-1-(pyridin-4-ylcarbonyl)piperidin-4-yl]-3-(phenylamino)-1H-pyrazole-4-carboxamide] | 7.70 | 6.50
Cc1cc(C(=O)N2CCC(CC#N)(n3cc(C(N)=O)c(Nc4ccccc4)n3)CC2)no1 [Example 34-12, 1-{4-(cyanomethyl)-1-[(5-methylisoxazol-3-yl)carbonyl]piperidin-4-yl}-3-(phenylamino)-1H-pyrazole-4-carboxamide] | 7.82 | 6.71
N#CCC1(n2cc(C(N)=O)c(Nc3ccccc3)n2)CCN(C(=O)C2CCCCC2)CC1 [Example 34-13, 1-[4-(cyanomethyl)-1-(cyclohexylcarbonyl)piperidin-4-yl]-3-(phenylamino)-1H-pyrazole-4-carboxamide] | 8.70 | 7.36
N#CCC1(n2cc(C(N)=O)c(Nc3ccccc3)n2)CCN(C(=O)c2cccs2)CC1 [Example 34-14, 1-[4-(cyanomethyl)-1-(thiophen-2-ylcarbonyl)piperidin-4-yl]-3-(phenylamino)-1H-pyrazole-4-carboxamide] | 9.52 | 8.10
N#CCC1(n2cc(C(N)=O)c(Nc3ccccc3)n2)CCN(C(=O)CN2CCCC2=O)CC1 [Example 34-15, 1-{4-(cyanomethyl)-1-[(2-oxopyrrolidin-1-yl)acetyl]piperidin-4-yl}-3-(phenylamino)-1H-pyrazole-4-carboxamide] | 8.30 | 6.71
N#CCC1(n2cc(C(N)=O)c(Nc3ccccc3)n2)CCN(C(=O)c2ccsc2)CC1 [Example 34-16, 1-[4-(cyanomethyl)-1-(thiophen-3-ylcarbonyl)piperidin-4-yl]-3-(phenylamino)-1H-pyrazole-4-carboxamide] | 8.70 | 7.46
N#CCC1(n2cc(C(N)=O)c(Nc3ccccc3)n2)CCN(C(=O)/C=C/c2cccnc2)CC1 [Example 34-17, 1-{4-(cyanomethyl)-1-[(2E)-3-pyridin-3-ylprop-2-enoyl]piperidin-4-yl}-3-(phenylamino)-1H-pyrazole-4-carboxamide] | 8.00 | 6.80
COc1ccc(C(=O)N2CCC(CC#N)(n3cc(C(N)=O)c(Nc4ccccc4)n3)CC2)cc1 [Example 34-18, 1-{4-(cyanomethyl)-1-[(4-methoxyphenyl)carbonyl]piperidin-4-yl}-3-(phenylamino)-1H-pyrazole-4-carboxamide] | 8.10 | 6.86
N#CCC1(n2cc(C(N)=O)c(Nc3ccccc3)n2)CCN(C(=O)c2ccc(Cl)cc2)CC1 [Example 34-19, 1-{1-[(4-chlorophenyl)carbonyl]-4-(cyanomethyl)piperidin-4-yl}-3-(phenylamino)-1H-pyrazole-4-carboxamide] | 7.96 | 6.74
N#CCC1(n2cc(C(N)=O)c(Nc3ccccc3)n2)CCN(C(=O)c2ccccc2Cl)CC1 [Example 34-20, 1-{1-[(2-chlorophenyl)carbonyl]-4-(cyanomethyl)piperidin-4-yl}-3-(phenylamino)-1H-pyrazole-4-carboxamide] | 7.89 | 6.94
N#CCC1(n2cc(C(N)=O)c(Nc3ccccc3)n2)CCN(C(=O)c2cccc(Cl)c2)CC1 [Example 34-21, l-{l-[(3-chlorophenyl)carbonyl]-4-(cyanomethyl)piperidin-4-yl}-3-(phenylamino)-lH-pyrazole-4-carboxamide] | 8.40 | 7.20
N#CCC1(n2cc(C(N)=O)c(Nc3ccccc3)n2)CCN(C(=O)c2cc3ccccc3[nH]2)CC1 [Example 34-22, 1-[4-(cyanomethyl)-1-(1H-indol-2-ylcarbonyl)piperidin-4-yl]-3-(phenylamino)-1H-pyrazole-4-carboxamide] | 8.22 | 6.75
CN(C)c1ccc(C(=O)N2CCC(CC#N)(n3cc(C(N)=O)c(Nc4ccccc4)n3)CC2)cc1 [Example 34-23, 1-[4-(cyanomethyl)-1-{[4-(dimethylamino)phenyl]carbonyl}piperidin-4-yl]-3-(phenylamino)-lH-pyrazole-4-carboxamide] | 7.85 | 6.64
COc1ccc(CC(=O)N2CCC(CC#N)(n3cc(C(N)=O)c(Nc4ccccc4)n3)CC2)cc1 [Example 34-24, 1-{4-(cyanomethyl)-1-[(4-methoxyphenyl)acetyl]piperidin-4-yl}-3-(phenylamino)-1H-pyrazole-4-carboxamide] | 8.15 | 7.08
N#CCC1(n2cc(C(N)=O)c(Nc3ccccc3)n2)CCN(C(=O)c2cccc3ccccc23)CC1 [Example 34-25, 1-[4-(cyanomethyl)-1-(naphthalene-1-ylcarbonyl)piperidin-4-yl]-3-(phenylamino)-1H-pyrazole-4-carboxamide] | 7.55 | 6.46
